The source of these data is patent EP0694545B1, “Substituted dibenzoxazepine compounds, pharmaceutical compositions and methods of use” (G.D. SEARLE & CO., priority 1991, dated 1992).

Usually ED50 stands for the midpoint of the dose-response relation.

Structures can show the parent of a compound that is named as a salt.

The subject of this assay is Charles River male albino mice. Briefly: PBQ Writhing Assay (analgesic activity). Format: in vivo. As to conditions: for PBQ WRITHING ASSAY I.G. (Active / *): intragastric; for PBQ WRITHING ASSAY I.G. (Active / *) / PBQ WRITHING ASSAY S.C. (Active / *): initial screening dose 30 mg per kilogram, 30 min before PBQ i.p., writhes counted for ten minutes; for PBQ WRITHING ASSAY S.C. (Active / *): subcutaneous. Further details: key to PBQ WRITHING ASSAY I.G. (Active / *) / PBQ WRITHING ASSAY S.C. (Active / *): *: Indicates that, in accordance with the particular conditions set forth above for the Writhing Assay, and under the test criteria employed for that assay, after the administration of an initial screening dosage of 30 mg per kilogram of the compound, the number of writhes elicited by a mouse injected with PBQ was not equal to, or less than, one-half the median number of writhes recorded for the saline-treated control group of mice that day. The text has this:
The Writhing Assay is one of the most widely-used experimental procedures for measuring the analgesic activity of different narcotic and nonnarcotic analgesic agents, and involves the continuous, chemically-induced pain of visceral origin to an animal, such as a mouse or rat. [Gyires et al., Arch. int. Pharmacodyn, 267, 131-140 (1984); […] al., Fed. Proc., 15, 494 (1956); Koster et al., Fed. Proc., 18, 412 (1959); and Witken et al., J. Pharmacol. exp. Ther., 133, 400-408 (1961).] Chemicals which may be used to induce this pain include phenylbenzoquinone (PBQ) and acetic acid. As a result of the chemical irritation to the animal, a characteristic stretching and writhing of the animal (dorsiflexion of the animal's back, extension of its hindlimbs and the strong contraction of its abdominal musculature) will generally occur. […] Drugs which reduce the number of writhes of the animal appear to restore the normal nociceptive threshold of the animal. Charles River male albino mice, weighing 20 to 30 grams were used in this assay. Thirty minutes after subcutaneous or intragastric administration to ten mice of 30 mg per kilogram of body weight of a compound of the present invention ("test compound"), […] per 10 g of body weight of a 0.025% w/v solution of PBQ was injected intraperitoneally into each mouse. Ten mice which were given saline in place of a test compound of the invention were used as a control group. Five minutes later, each mouse was individually placed into a glass beaker for observation, and the number of writhes occurring during the following ten-minute period was counted. A test compound was considered to have produced analgesia in a mouse if, in accordance with the conditions set forth above, and under the test criteria employed for this assay, after the administration of 30 mg per kilogram of body weight of a compound of the present invention to the mouse, the number of writhes elicited by a mouse injected with PBQ was equal to, or less than, one-half the median number of writhes recorded for the saline-treated control group of mice that day, as described by Taber in "Predictive Value of Analgesic Assays in Mice and Rats," Advances in Biochemical Psychopharmacology, 8, 191 (1974). The standard initial screening dose of a test compound employed in this assay was […] for both routes of administration. If this initial screening dose of the test compound produced analgesia in seven of ten mice, then the effect of additional doses of the test compound on the writhing response was evaluated, and then the ED50 dose was generally calculated. (The slopes of the dose-response curves for all test compounds analyzed were compared as described by Tallarida and Murray, Manual of Pharmacologic Calculations, Page 11 (Springer Verlag, New York, 1981)).

Take `O=C(CCc1cccc[n+]1[O-])NNC(=O)N1Cc2ccccc2Oc2ccc(Cl)cc21` [Example 10, 8-chlorodibenz[b,f][1,4]oxazepine-10(11H)--carboxylic acid, 2-[1-oxo-3-(2-pyridinyl)propyl]hydrazide, N-oxide]: the “PBQ WRITHING ASSAY I.G. (Active / *)” value is “*” and the “PBQ WRITHING ASSAY S.C. (Active / *)” value is recorded as “*”.

Consider `O=C(CCCCc1cccs1)NNC(=O)N1Cc2ccccc2Oc2ccc(Cl)cc21` [Example 33, β-chlorodibenz[b,f][1,4]oxazepine-10(11H)-carboxylic acid, 2-[1-oxo-5-(2-thienyl)pentyl]hydrazide], for which the “PBQ WRITHING ASSAY I.G. (Active / *)” value is “*” and the “PBQ WRITHING ASSAY S.C. (Active / *)” value is “*”.

In the case of `Cl.O=C(Cc1ccncc1)NNC(=O)N1Cc2ccccc2Oc2ccc(Cl)cc21` [Example 23, 8-chlorodibenz[b,f][1,4]oxazepine-10(11H)-carboxylic acid, 2-(4-pyridinylacetyl)hydrazide, monohydrochloride], the “PBQ WRITHING ASSAY I.G. (Active / *)” value is given as “*” and the “PBQ WRITHING ASSAY S.C. (Active / *)” value was “*”.

With `Cl.O=C(Cc1cccnc1)NNC(=O)N1Cc2ccccc2Oc2ccc(Cl)cc21` [Example 22, 8-chlorodibenz[b,f][1,4]oxazepine-10(11H)-carboxylic acid, 2-(3-pyridinylacetyl)hydrazide, monohydrochloride], the “PBQ WRITHING ASSAY I.G. (Active / *)” value is given as “*” and the “PBQ WRITHING ASSAY S.C. (Active / *)” value was “Active”.

As for `O=C(CCCc1ccsc1)NNC(=O)N1Cc2ccccc2Oc2ccc(Cl)cc21` [Example 16, 8-chlorodibenz[b,f][1,4]oxazepine-10(11H)-carboxylic acid, 2-[1-oxo-4-(3-thienyl)butyl]hydrazide], the “PBQ WRITHING ASSAY I.G. (Active / *)” value is given as “Active” and the “PBQ WRITHING ASSAY S.C. (Active / *)” value is recorded as “*”.

With `Cl.O=C(/C=C/c1ccccn1)NNC(=O)N1Cc2ccccc2Oc2ccc(Cl)cc21` [Example 20, 8-chlorodibenz[b,f][1,4]oxazepine-10(11H)-carboxylic acid, 2-[1-oxo-3-(2-pyridinyl)-2E-propenyl]hydrazide, monohydrochloride], the “PBQ WRITHING ASSAY I.G. (Active / *)” value was “*” and the “PBQ WRITHING ASSAY S.C. (Active / *)” value is “*”.

As to `O=C(NNC(=O)C(F)(F)Cc1ccccn1)N1Cc2ccccc2Oc2ccc(Cl)cc21` [Example 37, 8-chlorodibenz[b,f][1,4]oxazepine-10(11H)-carboxylic acid, 2-[2,2-difluoro-1-oxo-3-(2-pyridinyl)propyl]hydrazide], the “PBQ WRITHING ASSAY I.G. (Active / *)” value is listed as “Active”. For the setting “Mus musculus, po, intragastric administration, read-out: PBQ WRITHING ASSAY (ED50 (mpk)) I.G.”, the ED50 was determined as 9.7 mg/kg.

In the case of “8-chlorodibenz[b,f][1,4]oxazepine-10(11H)-carboxylic acid, 2-[1-oxo-4-(3-thienyl)-3Z-butenyl]hydrazide [Example 14]”, the “PBQ WRITHING ASSAY I.G. (Active / *)” value is recorded as “*” and the “PBQ WRITHING ASSAY S.C. (Active / *)” value is given as “*”.

With “8-chlorodibenz[b,f][1,4loxazepine-10(11H)-carboxylic acid, 2-(2-pyridinylacetyl)hydrazide, monohydrochloride [Example 21]”, the “PBQ WRITHING ASSAY I.G. (Active / *)” value is “*” and the “PBQ WRITHING ASSAY S.C. (Active / *)” value is recorded as “*”.

Regarding `Cl.O=C(CCCc1ccccn1)NNC(=O)N1Cc2ccccc2Oc2ccc(Cl)cc21` [Example 29, 8-chlorodibenz[b,f][1,4]oxazepine-10(11H)-carboxylic acid, 2-[1-oxo-4-(2-pyridinyl)butyl]hydrazide, monohydrochloride], the “PBQ WRITHING ASSAY I.G. (Active / *)” value is “Active” and the “PBQ WRITHING ASSAY S.C. (Active / *)” value is recorded as “Active”.

On to `Cl.O=C(NNC(=O)N1Cc2ccccc2Oc2ccc(Cl)cc21)c1cccnc1` [Example 18, 8-chlorodibenz[b,f][1,4]oxazepine-10(11H)-carboxylic acid, 2-(3-pyridinylcarbonyl)hydrazide, monohydrochloride], for which the “PBQ WRITHING ASSAY I.G. (Active / *)” value is given as “*” and the “PBQ WRITHING ASSAY S.C. (Active / *)” value was “*”.

In the case of “8-chlorodibenz[b,f][1,4]oxazepine-10(11H)-carboxylic acid, 2-[1-oxo-4-(3-thienyl)-3E-butenyl]hydrazide [Example 13]”, the “PBQ WRITHING ASSAY I.G. (Active / *)” value is on record as “*” and the “PBQ WRITHING ASSAY S.C. (Active / *)” value was “*”.

With `Cl.O=C(NNC(=O)N1Cc2ccccc2Oc2ccc(Cl)cc21)c1ccncc1` [Example 17, 8-chlorodibenz[b,f][1,4]oxazepine-10(11H)-carboxylic acid, 2-(4-pyridinylcarbonyl)hydrazide, monohydrochloride], the “PBQ WRITHING ASSAY I.G. (Active / *)” value is on record as “*” and the “PBQ WRITHING ASSAY S.C. (Active / *)” value was “*”.

As for `Cl.O=C(/C=C/c1ccncc1)NNC(=O)N1Cc2ccccc2Oc2ccc(Cl)cc21` [Example 27, 8-chlorodibenz[b,f][1,4]oxazepine-10(11H)-carboxylic acid, 2-[1-oxo-3-(4-pyridinyl)-2E-propenyl]hydrazide, monohydrochloride], the “PBQ WRITHING ASSAY I.G. (Active / *)” value is on record as “*” and the “PBQ WRITHING ASSAY S.C. (Active / *)” value was “*”.

For the compound `O=C(CCc1cccnc1)NNC(=O)N1Cc2ccccc2Oc2ccc(Cl)cc21` [Example 8, 8-chlorodibenz[b,f][1,4]oxazepine-10(11H)-carboxylic acid, 2-[1-oxo-3-(3-pyridinyl)propyl]hydrazide, monohydrochloride], the “PBQ WRITHING ASSAY I.G. (Active / *)” value was “Active” and the “PBQ WRITHING ASSAY S.C. (Active / *)” value is “Active”.

Regarding `O=C(CCCc1ccncc1)NNC(=O)N1Cc2ccccc2Oc2ccc(Cl)cc21` [Example 31, 8-chlorodibenz[b,f][1,4]oxazepine-10(11H)-carboxylic acid, 2-[1-oxo-4-(4-pyridinyl)butyl]hydrazide], the “PBQ WRITHING ASSAY I.G. (Active / *)” value is reported as “Active” and the “PBQ WRITHING ASSAY S.C. (Active / *)” value is “Active”.

`Cl.O=C(NNC(=O)N1Cc2ccccc2Oc2ccc(Cl)cc21)c1ccccn1` [Example 19, 8-chlorodibenz[b,f][1,4]oxazepine-10(11H)-carboxylic acid, 2-(2-pyridinylcarbonyl)hydrazide, monohydrochloride]: the “PBQ WRITHING ASSAY I.G. (Active / *)” value was “*” and the “PBQ WRITHING ASSAY S.C. (Active / *)” value is given as “*”.

Regarding `O=C(/C=C/c1cccnc1)NNC(=O)N1Cc2ccccc2Oc2ccc(Cl)cc21` [Example 7, 8-chlorodibenz[b,f][1,4]oxazepine-10(11H)-carboxylic acid, 2-[1-oxo-3-(3-pyridinyl)-2E-propenyl]hydrazide], the “PBQ WRITHING ASSAY I.G. (Active / *)” value is “Active” and the “PBQ WRITHING ASSAY S.C. (Active / *)” value is given as “Active”.
